Measurements from US20130269064A1, “INSECTICIDAL COMPOUNDS” (SYNGENTA PARTICIPATIONS AG, priority 2010, published 2013).

Key:
Type in all cases: in vivo
Spodoptera littoralis = Spodoptera littoralis (Egyptian cotton leafworm) cotton leaf disc test; conditions: foliar, 72 h, 200 ppm sprayed on cotton leaf discs, 5 L1 larvae, mortality, feeding behaviour, growth regulation 3 DAT
Source text: Spodoptera littoralis (Egyptian Cotton Leafworm): Cotton leaf discs were placed on agar in a 24-well microtiter plate and sprayed with test solutions at an application rate of 200 ppm. After drying, the leaf discs were infested with 5 L1 larvae. The samples were checked for mortality, feeding behaviour, and growth regulation 3 days after treatment (DAT).

Diabrotica balteata = Diabrotica balteata (corn root worm) artificial diet test; conditions: 120 h, 200 ppm (concentration in well 18 ppm), L2 larvae, 5 days, larval mortality and growth regulation
Method: Diabrotica balteata (Corn Root Worm): A 24-well microtiter plate (MTP) with artificial diet was treated with test solutions at an application rate of 200 ppm (concentration in well 18 ppm) by pipetting. After drying, the MTP's were infested with larvae (L2) (6-10 per well). After an incubation period of 5 days, samples were checked for larval mortality, and growth regulation.

Tetranychus urticae = Tetranychus urticae (two-spotted spider mite) bean leaf disc test; conditions: foliar, 192 h, 200 ppm sprayed on bean leaf discs, mixed ages, 8 days, egg, larval and adult mortality
Source text: Tetranychus urticae (Two-Spotted Spider Mite): Bean leaf discs on agar in 24-well microtiter plates were sprayed with test solutions at an application rate of 200 ppm. After drying, the leaf discs are infested with mite populations of mixed ages. 8 days later, discs are checked for egg mortality, larval mortality, and adult mortality.

Heliothis virescens = Heliothis virescens (tobacco budworm) egg/artificial diet test; conditions: 96 h, 200 ppm (concentration in well 18 ppm), eggs 0-24 h old on artificial diet, 4 days, egg mortality, larval mortality, growth regulation
Method: Heliothis virescens (Tobacco Budworm): Eggs (0-24 h old) were placed in 24-well microtiter plate on artificial diet and treated with test solutions at an application rate of 200 ppm (concentration in well 18 ppm) by pipetting. After an incubation period of 4 days, samples were checked for egg mortality, larval mortality and growth regulation.

Plutella xylostella = Plutella xylostella (diamond back moth) artificial diet test; conditions: 144 h, 200 ppm (concentration in well 18 ppm), L2 larvae, 6 days, larval mortality and growth regulation
Method: Plutella xylostella (Diamond Back Moth): A 24-well microtiter plate (MTP) with artificial diet was treated with test solutions at an application rate of 200 ppm (concentration in well 18 ppm) by pipetting. After drying, the MTP's were infested with L2 larvae (7-12 per well). After an incubation period of 6 days, samples were checked for larval mortality and growth regulation.

Measured: pest or weed control at 200 ppm

Cc1cc(C#N)ccc1C(=O)Nc1nc(C(=O)Nc2c(C(F)(F)F)c(C(F)(F)C(F)(F)F)nn2C)ccc1C#N [Compound F1]
≥ 80%: Spodoptera littoralis

Cc1cc(C#N)ccc1C(=O)Nc1cc(C(=O)Nc2c(C(F)(F)F)c(C(F)(F)C(F)(F)F)nn2C)ccc1Cl [Compound E24]
≥ 80%: all assays above

Cn1nc(C(F)(F)C(F)(F)F)c(C(F)(F)F)c1NC(=O)c1ccc(Cl)c(NC(=O)c2ccc(F)c(C(F)(F)F)c2)c1 [Compound E12]
≥ 80%: Diabrotica balteata

Cn1nc(C(F)(F)C(F)(F)F)c(C(F)(F)F)c1NC(=O)c1ccc(Cl)c(NC(=O)c2ccc(F)cc2Cl)c1 [Compound E19]
≥ 80%: all assays above

Cc1cc(C#N)ccc1C(=O)Nc1cccc(C(=O)Nc2c(C(F)(F)F)c(C(F)(F)C(F)(F)F)nn2C)c1 [Compound D24]
not listed: Heliothis virescens
≥ 80%: all other assays above

Cn1nc(C(F)(F)C(F)(F)F)c(C(F)(F)F)c1NC(=O)c1ccc(Cl)c(NC(=O)c2ccc(F)cc2)c1 [Compound E17]
not listed: Tetranychus urticae
≥ 80%: all other assays above

Cn1nc(C(F)(F)C(F)(F)F)c(C(F)(F)F)c1NC(=O)c1cccc(NC(=O)c2ccccc2OC(F)(F)F)c1 [Compound D14]
≥ 80%: Diabrotica balteata

Cn1nc(C(F)(F)C(F)(F)F)c(C(F)(F)F)c1NC(=O)c1cccc(NC(=O)c2ccc(C#N)cc2)c1F [Compound B4]
≥ 80%: all assays above

Cn1nc(C(F)(F)C(F)(F)F)c(C(F)(F)F)c1NC(=O)c1cccc(NC(=O)c2ccc(F)c(C(F)(F)F)c2)c1 [Compound D12]
≥ 80%: Diabrotica balteata | Heliothis virescens

Cn1nc(C(F)(F)C(F)(F)F)c(C(F)(F)F)c1NC(=O)c1ccc(Cl)c(NC(=O)c2cccc(F)c2F)c1 [Compound E21]
≥ 80%: Diabrotica balteata | Heliothis virescens

Cn1nc(C(F)(F)C(F)(F)F)c(C(F)(F)F)c1NC(=O)c1cccc(NC(=O)c2ccccc2F)c1F [Compound B1]
not listed: Tetranychus urticae
≥ 80%: all other assays above

Cn1nc(C(F)(F)C(F)(F)F)c(C(F)(F)F)c1NC(=O)c1ccc(Cl)c(NC(=O)c2ccc(C#N)cc2)c1 [Compound E4]
not listed: Tetranychus urticae
≥ 80%: all other assays above

Cc1ccccc1C(=O)Nc1cccc(C(=O)Nc2c(C(F)(F)F)c(C(F)(F)C(F)(F)F)nn2C)c1 [Compound D2]
not listed: Tetranychus urticae
≥ 80%: all other assays above

Cn1nc(C(F)(F)C(F)(F)F)c(C(F)(F)F)c1NC(=O)c1ccc(Cl)c(NC(=O)c2ccccc2C(F)(F)F)c1 [Compound E18]
≥ 80%: Diabrotica balteata

Cn1nc(C(F)(F)C(F)(F)F)c(C(F)(F)F)c1NC(=O)c1cccc(NC(=O)c2cccc(F)c2F)c1F [Compound B21]
not listed: Tetranychus urticae
≥ 80%: all other assays above

Cn1nc(C(F)(F)C(F)(F)F)c(C(F)(F)F)c1NC(=O)c1cccc(NC(=O)c2ccc(C#N)cc2)c1 [Compound D4]
≥ 80%: Diabrotica balteata | Tetranychus urticae

Cn1nc(C(F)(F)C(F)(F)F)c(C(F)(F)F)c1NC(=O)c1cccc(NC(=O)c2ccc(F)cc2F)c1F [Compound B22]
not listed: Tetranychus urticae
≥ 80%: all other assays above

Cn1nc(C(F)(F)C(F)(F)F)c(C(F)(F)F)c1NC(=O)c1cccc(NC(=O)c2ccc(OC(F)(F)F)cc2)c1 [Compound D11]
not listed: Tetranychus urticae
≥ 80%: all other assays above

Cc1ccccc1C(=O)Nc1cc(C(=O)Nc2c(C(F)(F)F)c(C(F)(F)C(F)(F)F)nn2C)ccc1Cl [Compound E2]
≥ 80%: Spodoptera littoralis

Cn1nc(C(F)(F)C(F)(F)F)c(C(F)(F)F)c1NC(=O)c1ccc(Cl)c(NC(=O)c2ccc([N+](=O)[O-])cc2Cl)c1 [Compound E9]
≥ 80%: Diabrotica balteata | Tetranychus urticae

Cn1nc(C(F)(F)C(F)(F)F)c(C(F)(F)F)c1NC(=O)c1ccc(Cl)c(NC(=O)c2ccccc2Cl)c1 [Compound E3]
not listed: Tetranychus urticae
≥ 80%: all other assays above

Cn1nc(C(F)(F)C(F)(F)F)c(C(F)(F)F)c1NC(=O)c1ccc(C#N)c(NC(=O)c2ccncc2)n1 [Compound F2]
not listed: Spodoptera littoralis
≥ 80%: all other assays above

Cn1nc(C(F)(F)C(F)(F)F)c(C(F)(F)F)c1NC(=O)c1cccc(NC(=O)c2ccc([N+](=O)[O-])cc2)c1 [Compound D5]
not listed: Tetranychus urticae
≥ 80%: all other assays above

Cn1nc(C(F)(F)C(F)(F)F)c(C(F)(F)F)c1NC(=O)c1cccc(NC(=O)c2cc(C(F)(F)F)ccc2F)c1 [Compound D23]
≥ 80%: Diabrotica balteata | Spodoptera littoralis | Heliothis virescens

Cn1nc(C(F)(F)C(F)(F)F)c(C(F)(F)F)c1NC(=O)c1ccc(Cl)c(NC(=O)c2ccccc2)c1 [Compound E16]
not listed: Tetranychus urticae
≥ 80%: all other assays above

Cc1ccc(C(=O)Nc2cccc(C(=O)Nc3c(C(F)(F)F)c(C(F)(F)C(F)(F)F)nn3C)c2F)cc1 [Compound B6]
not listed: Tetranychus urticae
≥ 80%: all other assays above

Cn1nc(C(F)(F)C(F)(F)F)c(C(F)(F)F)c1NC(=O)c1cccc(NC(=O)c2ccccc2C(F)(F)F)c1 [Compound D18]
≥ 80%: Diabrotica balteata | Spodoptera littoralis | Heliothis virescens

Cn1nc(C(F)(F)C(F)(F)F)c(C(F)(F)F)c1NC(=O)c1cccc(NC(=O)c2ccccc2Cl)c1F [Compound B3]
not listed: Tetranychus urticae
≥ 80%: all other assays above

Cn1nc(C(F)(F)C(F)(F)F)c(C(F)(F)F)c1NC(=O)c1ccc(Cl)c(NC(=O)c2ccc([N+](=O)[O-])cc2)c1 [Compound E5]
≥ 80%: Diabrotica balteata | Heliothis virescens | Plutella xylostella

Cn1nc(C(F)(F)C(F)(F)F)c(C(F)(F)F)c1NC(=O)c1ccc(Cl)c(NC(=O)c2ccc(C(F)(F)F)cc2)c1 [Compound E13]
≥ 80%: Diabrotica balteata | Heliothis virescens
